According to patent US20210230179A1, “THIENO[2,3-B]PYRIDINE DERIVATIVES AS EPAC INHIBITORS AND THEIR PHARMACEUTICAL USES” (INSTITUT NATIONAL DE LA SANTE ET DE LA RECHERCHE MEDICALE …, priority 2018, published 2021):

What was measured:
[1] = system: isolated adult cardiomyocytes; test: hypoxia-reoxygenation injury of isolated adult cardiomyocytes (LDH release); type: cell-based, mouse
Epac1 = target: T1, Epac1 (Homo sapiens, UniProt O95398); test: Rap1-GTP in HEK293 cells transfected with Epac1; type: cell-based; design: expressed in transfected cells; host or cells: HEK293; conditions: 20 μM, 30 min preincubation; 8-CPT-AM 10 μM, 10 min
T1 sequence (O95398 1-923): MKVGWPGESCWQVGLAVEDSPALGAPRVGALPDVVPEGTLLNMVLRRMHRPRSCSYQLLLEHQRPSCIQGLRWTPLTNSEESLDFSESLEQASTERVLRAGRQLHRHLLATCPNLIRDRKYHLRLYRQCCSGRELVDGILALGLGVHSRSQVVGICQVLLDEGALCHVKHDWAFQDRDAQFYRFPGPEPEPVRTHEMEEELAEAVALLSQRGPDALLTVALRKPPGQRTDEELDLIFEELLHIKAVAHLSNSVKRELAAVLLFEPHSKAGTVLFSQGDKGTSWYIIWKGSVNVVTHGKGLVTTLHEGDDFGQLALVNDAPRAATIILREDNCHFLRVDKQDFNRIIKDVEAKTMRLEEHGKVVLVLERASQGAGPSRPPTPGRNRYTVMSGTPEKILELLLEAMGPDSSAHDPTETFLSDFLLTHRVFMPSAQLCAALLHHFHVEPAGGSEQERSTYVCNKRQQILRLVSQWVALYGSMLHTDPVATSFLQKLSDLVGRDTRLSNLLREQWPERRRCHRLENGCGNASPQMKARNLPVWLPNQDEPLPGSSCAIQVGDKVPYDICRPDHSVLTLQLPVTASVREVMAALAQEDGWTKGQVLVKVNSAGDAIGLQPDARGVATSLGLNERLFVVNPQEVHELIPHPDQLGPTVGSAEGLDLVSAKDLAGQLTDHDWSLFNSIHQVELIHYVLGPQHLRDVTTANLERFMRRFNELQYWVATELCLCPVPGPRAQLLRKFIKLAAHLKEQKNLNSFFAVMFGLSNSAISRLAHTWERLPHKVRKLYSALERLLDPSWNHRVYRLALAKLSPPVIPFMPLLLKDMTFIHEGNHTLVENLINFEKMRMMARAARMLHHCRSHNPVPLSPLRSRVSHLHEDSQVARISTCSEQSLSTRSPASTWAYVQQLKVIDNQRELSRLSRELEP
Experimental: FIGS. 9-13. Amounts of Rap1-GTP (n=5 in each group, mean±S.E.M) were determined in HEK293 cells transfected with Epac1 (FIGS. 9-11), Epac2A (FIG. 12) or Epac2B (FIG. 13). Cells were preincubated or not with AM-001 (FIGS. 9, 12, and 13), AM-002 (FIG. 10) or AM-003 (FIG. 11) (20 μM, 30 min) and were then treated or not with 8-CPT-AM (10 μM for Epac1 activation and 20 μM for Epac2A activation) or S-220 (50 μM for Epac2B activation) for 10 min. ESI-05 was used as positive control of Epac2A inhibition. Representative immunoblots are shown. […], *[…], ***p<0.001, ****p<0.0001, versus indicated values, one way ANOVA, Bonferroni comparison test.
Human Embryonic Kidney cells line (HEK293): HEK293 cells were maintained is in minimal essential medium with FBS (10%) and penicillin-streptomycin (1%). All media, sera, and antibiotics used in cell culture were purchased from Invitrogen.
The human Epac1/Epac2 expression vector was a gift from Dr J. L. Bos. Cells were transfected using Lipofectamine 2000 (Invitrogen) according to the manufacturer's instructions. HEK293 cells were maintained in MEM with FBS (Foetal Bovine Serum; 10%) and penicillin-streptomycin (1%). All media, sera and antibiotics used in cell culture were purchased from Invitrogen (Cergy Pontoise, France). Transient transfection experiments were performed with Lipofectamine 2000 (Invitrogen Life Technologies) in the presence of various amounts of plasmid constructs according to the manufacturer's instructions.
This cell line is commonly used for the evaluation of Epac pharmacological modulators on the cellular signaling of ectopically expressed Epac1 and Epac2 isoforms. […] Next, the inventors investigated the effect of 8-CPT-AM on the two Epac2 splice variants, Epac2A and Epac2B (FIGS. 12-13).

[2] = system: neonatal rat ventricular myocytes; test: cytotoxicity in cultured cells; type: cell-based; conditions: various types of cultured cells including neonatal rat ventricular myocytes
Source text: Neonatal rat ventricular myocytes (NRVM) isolation: Neonatal rats of 1-2 days old were euthanized by decapitation. The heart was excised and the atria were removed.

type II PKA holoenzyme = type II PKA holoenzyme activation; type: biochemical; conditions: 30 μM, presence and absence of 10 μM cAMP

Nc1c(C(=O)Nc2ccc(F)cc2)sc2nc(-c3cccs3)cc(-c3ccccc3)c12 [AM-001, 3-amino-N-(4-fluorophenyl)-4-phenyl-6-(thiophen-2-yl)thieno[2,3-b]pyridine-2-carboxamide]
effect on 8-CPT-AM-induced cardiomyocyte death and hypertrophy ([1]; AM-001 20 μM, 8-CPT-AM 10 μM): inhibited the effect | cardiomyocyte survival by LDH release ([1]; HX+R condition, 20 μM, 30 min pretreatment, vs control cells): significantly increased cardiomyocyte survival | inhibition of Epac1-induced Rap1 activation (Epac1): prevented Epac1-induced Rap1 activation | cytotoxicity [2]: no apparent cytotoxicity | effect on type II PKA holoenzyme activation (type II PKA holoenzyme): did not influence
